The target of the assay is T1, PTP-1B (Homo sapiens, UniProt P18031).
T1 construct: PTP-1B (purified, 1 mg/mL) as a 1:250 dilution
T1 sequence (P18031 1-321 limits assumed): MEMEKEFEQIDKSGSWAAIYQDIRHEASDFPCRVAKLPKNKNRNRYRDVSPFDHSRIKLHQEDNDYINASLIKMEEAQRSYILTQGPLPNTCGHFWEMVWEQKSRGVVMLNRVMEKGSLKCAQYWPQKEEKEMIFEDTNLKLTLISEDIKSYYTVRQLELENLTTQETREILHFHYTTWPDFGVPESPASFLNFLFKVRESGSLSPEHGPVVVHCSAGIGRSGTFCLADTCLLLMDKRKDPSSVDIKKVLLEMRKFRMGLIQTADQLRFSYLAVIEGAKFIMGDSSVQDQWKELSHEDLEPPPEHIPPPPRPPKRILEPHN
The experiment in a line: pNPP tyrosine phosphatase inhibition assay, PTP-1B. In kind it is biochemical. The settings on record: pNPP assay, PTP-1B; read-out: Activity Class (IC50 ranges). A digest of the protocol:
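Test compounds were screened at two final levels, 31.3 and 10 µM, against 4 µg/mL purified PTP-1B. The substrate was 10 mM p-nitrophenyl phosphate, with incubation for 10 min at 30°C before a K2CO3 quench. Activity was taken from A405.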
With `COc1ccccc1S(=O)(=O)N(Cc1ccc(C#N)cc1)Cc1ccc(NS(=O)(=O)C(F)(F)F)cc1` [Compound 117, N-(4-(N-trifluoro-methanesulfonyl-amino]benzyl)-N-(4-cyanobenzyl)-(2-methoxy)benzenesulfonamide], the 50% inhibitory concentration (IC50) – broadly, the midpoint of a concentration-inhibition curve – was more than 25000 nM.

With “{[4-(difluorophosphonomethyl)-3-chlorophenyl]methyl}[(2-methoxyphenyl)sulfonyl]{[2-(4-methylphenyl)phenyl]methyl}amine [Compound 198]”, the IC50 is less than 99 nM.

On to `COc1ccccc1S(=O)(=O)N(Cc1ccc(C#N)cc1)Cc1ccc(NS(=O)(=O)C(F)(F)F)c(C(=O)O)c1` [Compound 139, 5-{[(4-Cyano-benzyl)-(2-methoxy-benzenesulfonyl)-amino]-methyl}-2-trifluoromethanesulfonylamino-benzoic acid], for which the IC50 was more than 25000 nM.

Turning to “{[4-(difluorophosphonomethyl)-3-chlorophenyl]methyl}{[2-(3-ethylphenyl)phenyl]methyl}[(2-methoxyphenyl)sulfonyl]amine [Compound 196]”, the IC50 lay in the range of 100 to 249 nM.

With `COc1ccccc1S(=O)(=O)N(Cc1ccc(Cl)c(Cl)c1)Cc1ccc(C(F)(F)P(=O)(O)O)c(Cl)c1` [Compound 146, [(2-Chloro-4-{[(3,4-dichloro-benzyl)-(2-methoxy-benzenesulfonyl)-amino]-methyl}-phenyl)-difluoro-methyl]-phosphonic acid], the IC50 is 250 to 499 nM.

On to `COc1ccccc1S(=O)(=O)N(Cc1ccc(C(F)(F)P(=O)(O)O)c(Cl)c1)Cc1ccccc1Br` [Compound 178, [(4-{[(2-Bromo-benzyl)-(2-methoxy-benzenesulfonyl)-amino]-methyl}-2-chloro-phenyl)-difluoro-methyl]-phosphonic acid], for which the IC50 fell in the range of 100 to 249 nM.

Regarding `COc1ccccc1S(=O)(=O)N(Cc1ccc(C#N)cc1)Cc1ccc(C(F)(F)P(=O)(O)O)c(Br)c1` [Compound 105, [(2-Bromo-4-{[(4-cyano-benzyl)-(2-methoxybenzenesulfonyl)-amino]-methyl}-phenyl)-difluoro-methyl]-phosphonic acid], the IC50 lay within 100 to 249 nM.

In the case of `COc1ccccc1S(=O)(=O)N(Cc1ccc(C(=O)O)cc1)Cc1ccc(-c2nnn[nH]2)cc1` [Compound 116, N-(4-[hydroxycarbonyl]-benzyl)-2-methoxy-N-[4-(1H-tetrazol-5-yl)-benzyl]-benzenesulfonamide], the IC50 is more than 25000 nM.

As for `O=P(O)(O)C(F)(F)c1ccc(CN(Cc2ccc(C(F)(F)P(=O)(O)O)cc2)S(=O)(=O)c2ccccc2-c2ccccc2)cc1` [Compound 93, {[4-({(Biphenyl-2-sulfonyl)-[4-(difluoro-phosphono-methyl)-benzyl]-amino}-methyl)-phenyl]-difluoro-methyl}-phosphonic acid], the IC50 fell in the range of 250 to 499 nM.

For `O=P(O)(O)C(F)(F)c1ccc(CN(Cc2ccc(C(F)(F)P(=O)(O)O)cc2)S(=O)(=O)c2ccccc2Br)cc1` [Compound 84, {[4-({(2-Bromo-benzenesulfonyl)-[4-(difluoro-phosphono-methyl)-benzyl]-amino}-methyl)-phenyl]-difluoro-methyl}-phosphonic acid], the IC50 lay within 250 to 499 nM.

With `COc1ccccc1S(=O)(=O)N(Cc1ccc(-c2ccc(Cc3nn[nH]n3)cc2)cc1)Cc1ccc(C(F)(F)P(=O)(O)O)c(Cl)c1` [Compound 153, {[2-Chloro-4-({(2-methoxy-benzenesulfonyl)-[4′-(2H-tetrazol-5-ylmethyl)-biphenyl-4-ylmethyl]-amino}-methyl)-phenyl]-difluoro-methyl}-phosphonic acid], the IC50 is 100 to 249 nM.

As to `COc1ccccc1S(=O)(=O)N(Cc1ccc(-c2cccc(C(=O)O)c2)cc1)Cc1ccc(C(F)(F)P(=O)(O)O)c(Cl)c1` [Compound 149, 4′-{[[3-Chloro-4-(difluoro-phosphono-methyl)-benzyl]-(2-methoxy-benzenesulfonyl)-amino]-methyl}-biphenyl-3-carboxylic acid], the IC50 is less than 99 nM.

Turning to `COc1ccccc1S(=O)(=O)N(Cc1ccc(-c2ccc(O)c(C(=O)O)c2)cc1)Cc1ccc(C(F)(F)P(=O)(O)O)c(Cl)c1` [Compound 156, 4′-{[[3-Chloro-4-(difluoro-phosphono-methyl)-benzyl]-(2-methoxy-benzenesulfonyl)-amino]-methyl}-4-hydroxy-biphenyl-3-carboxylic acid], the IC50 was less than 99 nM.

Turning to `COc1ccccc1S(=O)(=O)N(Cc1ccc(C#N)cc1)Cc1ccc(NC(=O)C(=O)O)cc1` [Compound 118, N-(4-(N-oxalylamino]benzyl)-N-(4-cyanobenzyl)-(2-methoxy)benzenesulfonamide], the IC50 was more than 25000 nM.

In the case of `COc1ccccc1S(=O)(=O)N(Cc1ccccc1)Cc1ccc(C(F)(F)P(=O)(O)O)c(Cl)c1` [Compound 170, [(4-{[Benzyl-(2-methoxy-benzenesulfonyl)-amino]-methyl}-2-chloro-phenyl)-difluoro-methyl]-phosphonic acid], the IC50 lay in the range of 250 to 499 nM.

With `O=P(O)(O)C(F)(F)c1ccc(CN(Cc2ccc(C(F)(F)P(=O)(O)O)cc2)S(=O)(=O)c2cccc(Cl)c2)cc1` [Compound 76, {[4-({(3-Chloro-benzenesulfonyl)-[4-(difluoro-phosphono-methyl)-benzyl]-amino}-methyl)-phenyl]-difluoro-methyl}-phosphonic acid], the IC50 was 250 to 499 nM.

Regarding `O=P(O)(O)C(F)(F)c1ccc(CN(Cc2ccc(C(F)(F)P(=O)(O)O)cc2)S(=O)(=O)c2ccc(-c3ccccc3)cc2)cc1` [Compound 66, {[4-({(Biphenyl-4-sulfonyl)-[4-(difluoro-phosphono-methyl)-benzyl]-amino}-methyl)-phenyl]-difluoro-methyl}-phosphonic acid], the IC50 lay within 250 to 499 nM.

Turning to `CCCc1cc(-c2ccc(CN(Cc3ccc(C(F)(F)P(=O)(O)O)c(Cl)c3)S(=O)(=O)c3ccccc3OC)cc2)cc(C(=O)OC)c1O` [Compound 160, 4′-{[[3-Chloro-4-(difluoro-phosphono-methyl)-benzyl]-(2-methoxy-benzenesulfonyl)-amino]-methyl}-4-hydroxy-5-propyl-biphenyl-3-carboxylic acid methyl ester], the IC50 lay in the range of 250 to 499 nM.

For the compound “Methyl 5-{4-[({[4-(difluorophosphonomethyl)-3-chlorophenyl]methyl}[(2-methoxyphenyl)sulfonyl]amino)methyl]phenyl}-2-methoxybenzoate [Compound 205]”, the half-maximal inhibitory concentration (IC50) is 100 to 249 nM.

Consider `COC(=O)c1ccc(CN(Cc2ccc(C(F)(F)P(=O)(O)O)c(Br)c2)S(=O)(=O)c2ccccc2Cl)cc1` [Compound 104, 4-{[[3-Bromo-4-(difluoro-phosphono-methyl)-benzyl]-(2-chloro-benzenesulfonyl)-amino]-methyl}-benzoic acid methyl ester], for which the IC50 lay within 100 to 249 nM.

With “2,2-Dimethyl-propionic acid [(2-bromo-4-{[(4-methanesulfonyl-phenyl)-(2-methoxy-benzenesulfonyl)-amino]-methyl}-phenyl)-difluoro-methyl]-hydroxy-phosphinoyloxymethyl ester [Compound 228]”, the IC50 was 2500 to 25000 nM.

“[(4-{[(3′-Carbamoyl-biphenyl-2-ylmethyl)-(2-methoxy-benzenesulfonyl)-amino]-methyl}-2-chloro-phenyl)-difluoro-methyl]-phosphonic acid [Compound 187]”: the 50% inhibitory concentration (IC50) was less than 99 nM.

On to `O=P(O)(O)C(F)(F)c1ccc(CN(Cc2ccc(C(F)(F)P(=O)(O)O)cc2)c2ccc(-c3ccccc3)cc2)cc1` [Compound 62, {[4-({Biphenyl-4-yl-[4-(difluoro-phosphono-methyl)-benzyl]-amino}-methyl)-phenyl]-difluoro-methyl}-phosphonic acid], for which the IC50 fell in the range of 2500 to 25000 nM.

With `COc1ccccc1S(=O)(=O)N(Cc1ccc(C(F)(F)P(=O)(O)O)c(Cl)c1)Cc1ccccc1-c1cccnc1` [Compound 179, [(2-Chloro-4-{[(2-methoxy-benzenesulfonyl)-(2-pyridin-3-yl-benzyl)-amino]-methyl}-phenyl)-difluoro-methyl]-phosphonic acid], the IC50 was 100 to 249 nM.

As to `COc1ccccc1S(=O)(=O)N(Cc1ccc(-c2ccc(CC#N)cc2)cc1)Cc1ccc(C(F)(F)P(=O)(O)O)c(Cl)c1` [Compound 152, [(2-Chloro-4-{[(4′-cyanomethyl-biphenyl-4-ylmethyl)-(2-methoxy-benzenesulfonyl)-amino]-methyl}-phenyl)-difluoro-methyl]-phosphonic acid], the IC50 was 100 to 249 nM.

As for `NC(=O)c1cccc(S(=O)(=O)N(Cc2ccc(C(F)(F)P(=O)(O)O)c(Cl)c2)Cc2ccccc2-c2ccccc2)c1` [Compound 214, [(4-{[Biphenyl-2-ylmethyl-(3-carbamoyl-benzenesulfonyl)-amino]-methyl}-2-chloro-phenyl)-difluoro-methyl]-phosphonic acid], the IC50 was 250 to 499 nM.

For `CC(C)COC(=O)N(Cc1ccc(C(F)(F)P(=O)(O)O)cc1)Cc1ccc(C(F)(F)P(=O)(O)O)cc1` [Compound 61, {[4-({[4-(Difluoro-phosphono-methyl)-benzyl]-isobutoxycarbonyl-amino}-methyl)-phenyl]-difluoro-methyl}-phosphonic acid], the IC50 fell in the range of 2500 to 25000 nM.

`COc1ccccc1S(=O)(=O)N(Cc1ccc(-c2cccc(C#N)c2)cc1)Cc1ccc(C(F)(F)P(=O)(O)OCOC(=O)C(C)(C)C)c(Cl)c1` [Compound 227, 2,2-Dimethyl-propionic acid [(2-chloro-4-{[(3′-cyano-biphenyl-4-ylmethyl)-(2-methoxy-benzenesulfonyl)-amino]-methyl}-phenyl)-difluoro-methyl]-hydroxy-phosphinoyloxymethyl ester]: the IC50 was more than 25000 nM.

Source of the values: patent US20060135773A1, “Trisubstituted nitrogen modulators of tyrosine phosphatases” (priority 2004, published 2006).
